Measurements taken from patent publication US10246453B2, “Benzenesulfonamide compounds and their use as therapeutic agents” (Xenon Pharmaceuticals Inc., priority 2016, dated 2019).
Where a name gives a salt, the structure may show the parent alone.

Tests used:
NaV1.1 = NaV1.1 (Homo sapiens (Human), UniProt P35498); test: Sodium Influx Assay (Flux), NaV1.1; format: cell-based; conditions: Trex HEK293 cells, ANG2 dye; arithmetic mean
NaV1.6 = NaV1.6 (Homo sapiens (Human), UniProt Q9UQD0); test: Sodium Influx Assay (Flux), NaV1.6; conditions: read-out: Flux NaV1.6 IC50; Trex HEK293 cells, ANG2 dye; arithmetic mean
NaV1.5 = NaV1.5 (Homo sapiens (Human), UniProt Q14524); test: Sodium Influx Assay (Flux), NaV1.5; conditions: read-out: Flux NaV1.5 IC50; Trex HEK293 cells, ANG2 dye; arithmetic mean
Chain of NaV1.5 (Q14524 other isoform, or with tags, fused parts or gaps): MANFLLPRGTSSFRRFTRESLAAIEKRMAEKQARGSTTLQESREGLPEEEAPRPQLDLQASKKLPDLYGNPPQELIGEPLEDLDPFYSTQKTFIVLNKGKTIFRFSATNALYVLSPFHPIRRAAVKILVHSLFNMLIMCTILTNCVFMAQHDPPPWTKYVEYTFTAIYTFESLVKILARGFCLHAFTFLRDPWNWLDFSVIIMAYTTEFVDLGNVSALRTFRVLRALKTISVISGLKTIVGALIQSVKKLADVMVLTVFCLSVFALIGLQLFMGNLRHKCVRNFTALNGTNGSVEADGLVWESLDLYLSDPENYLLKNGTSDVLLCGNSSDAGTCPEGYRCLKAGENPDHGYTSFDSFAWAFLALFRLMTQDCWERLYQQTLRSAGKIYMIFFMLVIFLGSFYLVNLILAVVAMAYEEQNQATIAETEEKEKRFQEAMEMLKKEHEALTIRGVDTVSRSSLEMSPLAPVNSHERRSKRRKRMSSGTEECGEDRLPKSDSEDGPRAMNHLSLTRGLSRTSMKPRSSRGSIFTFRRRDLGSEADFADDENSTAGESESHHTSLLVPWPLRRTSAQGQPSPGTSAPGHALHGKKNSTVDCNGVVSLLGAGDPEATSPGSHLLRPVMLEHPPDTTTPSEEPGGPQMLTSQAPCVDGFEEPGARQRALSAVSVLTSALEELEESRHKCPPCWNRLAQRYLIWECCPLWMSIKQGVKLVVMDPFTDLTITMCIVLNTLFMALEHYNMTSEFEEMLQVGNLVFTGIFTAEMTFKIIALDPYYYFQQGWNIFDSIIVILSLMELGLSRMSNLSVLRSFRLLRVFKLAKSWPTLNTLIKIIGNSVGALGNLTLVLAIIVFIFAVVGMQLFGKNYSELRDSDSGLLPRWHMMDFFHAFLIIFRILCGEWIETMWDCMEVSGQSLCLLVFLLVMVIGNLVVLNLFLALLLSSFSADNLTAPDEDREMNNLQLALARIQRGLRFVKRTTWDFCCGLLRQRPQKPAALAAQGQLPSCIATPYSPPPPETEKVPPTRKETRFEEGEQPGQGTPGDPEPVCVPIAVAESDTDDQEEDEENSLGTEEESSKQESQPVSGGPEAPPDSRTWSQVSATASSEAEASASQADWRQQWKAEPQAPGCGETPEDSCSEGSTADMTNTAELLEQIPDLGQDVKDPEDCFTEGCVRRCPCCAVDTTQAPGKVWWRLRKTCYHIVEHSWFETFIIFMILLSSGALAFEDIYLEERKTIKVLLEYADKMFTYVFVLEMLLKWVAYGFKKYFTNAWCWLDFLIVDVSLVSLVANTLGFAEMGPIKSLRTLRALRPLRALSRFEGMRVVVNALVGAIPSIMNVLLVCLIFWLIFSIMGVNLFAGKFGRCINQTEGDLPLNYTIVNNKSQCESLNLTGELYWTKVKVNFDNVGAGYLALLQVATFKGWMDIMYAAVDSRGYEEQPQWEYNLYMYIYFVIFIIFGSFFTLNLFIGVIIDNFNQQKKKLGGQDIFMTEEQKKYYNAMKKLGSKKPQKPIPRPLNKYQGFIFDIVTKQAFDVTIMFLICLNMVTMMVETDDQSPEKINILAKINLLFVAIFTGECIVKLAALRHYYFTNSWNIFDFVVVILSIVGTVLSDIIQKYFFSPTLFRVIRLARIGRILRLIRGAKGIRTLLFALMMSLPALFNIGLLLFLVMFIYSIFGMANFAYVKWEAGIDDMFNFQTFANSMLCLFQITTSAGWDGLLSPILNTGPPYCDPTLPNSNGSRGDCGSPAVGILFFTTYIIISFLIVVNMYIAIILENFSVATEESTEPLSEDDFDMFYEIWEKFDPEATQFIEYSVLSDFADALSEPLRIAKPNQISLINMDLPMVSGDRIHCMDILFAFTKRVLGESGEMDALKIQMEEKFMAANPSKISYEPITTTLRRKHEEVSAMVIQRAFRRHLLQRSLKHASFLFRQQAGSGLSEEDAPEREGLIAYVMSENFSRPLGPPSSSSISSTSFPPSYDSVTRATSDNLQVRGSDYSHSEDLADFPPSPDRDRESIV

Row | SMILES | IC50 (NaV1.1) | IC50 (NaV1.6) | IC50 (NaV1.5)
1 | O=S(=O)(Nc1nccs1)c1ccc(OC2CCN(Cc3ccc(C(F)(F)F)cc3)CC2)c(Cl)c1 [Example 23, 3-chloro-N-(thiazol-2-yl)-4-((1-(4-(trifluoromethyl)benzyl)piperidin-4-yl)oxy)benzenesulfonamide 2,2,2-trifluoroacetate] | > 30 µM | > 30 µM | 29.6 µM
2 | Cc1ccc(CN2CCC(Oc3ccc(S(=O)(=O)Nc4nccs4)cc3Cl)CC2)cc1 [Example 24, 3-chloro-N-(thiazol-2-yl)-4-((1-(4-methylbenzyl)piperidin-4-yl)oxy)benzenesulfonamide 2,2,2-trifluoroacetate] | 12.6 µM | 2.54 µM | 13.5 µM
3 | CN(c1ccc(S(=O)(=O)Nc2ncns2)cc1Cl)[C@H]1CCN(Cc2cccc(Cl)c2)C1 [Example 30, (S)-3-chloro-4-((1-(3-chlorobenzyl)pyrrolidin-3-yl)(methyl)amino)-N-(1,2,4-thiadiazol-5-yl)benzenesulfonamide] | 7.97 µM | 0.021 µM | 18.7 µM
4 | CN(c1ccc(S(=O)(=O)Nc2ncns2)cc1Cl)[C@H]1CCN(Cc2cccc(Cl)c2F)C1 [Example 32, (S)-3-chloro-4-((1-(3-chloro-2-fluorobenzyl)pyrrolidin-3-yl)(methyl)amino)-N-(1,2,4-thiadiazol-5-yl)benzenesulfonamide] | 6.55 µM | 0.047 µM | 7.41 µM
5 | Cc1cccc(CN2CC[C@H](N(C)c3ccc(S(=O)(=O)Nc4ncns4)cc3Cl)C2)c1F [Example 34, (S)-3-chloro-4-((1-(2-fluoro-3-methylbenzyl)pyrrolidin-3-yl)(methyl)amino)-N-(1,2,4-thiadiazol-5-yl)benzenesulfonamide 2,2,2-trifluoroacetate] | 19.9 µM | 0.039 µM | > 30 µM
6 | Cc1ccc(F)c(CN2CC[C@H](N(C)c3ccc(S(=O)(=O)Nc4ncns4)cc3Cl)C2)c1 [Example 35, (S)-3-chloro-4-((1-(2-fluoro-5-methylbenzyl)pyrrolidin-3-yl)(methyl)amino)-N-(1,2,4-thiadiazol-5-yl)benzenesulfonamide] | 15.9 µM | 0.021 µM | > 30 µM
7 | CCN(c1ccc(S(=O)(=O)Nc2ncns2)cc1Cl)[C@H]1CCN(Cc2cccc(C)c2)C1 [Example 37, (S)-3-chloro-4-(ethyl(1-(3-methylbenzyl)pyrrolidin-3-yl)amino)-N-(1,2,4-thiadiazol-5-yl)benzenesulfonamide] | > 30 µM | 0.195 µM | > 30 µM
8 | CN(c1cc(F)c(S(=O)(=O)Nc2nccs2)cc1Cl)[C@H]1CCN(Cc2ccccc2)C1 [Example 39, (S)-4-((1-benzylpyrrolidin-3-yl)(methyl)amino)-5-chloro-2-fluoro-N-(thiazol-2-yl)benzenesulfonamide bis(trifluoroacetic acid) salt] | 4.96 µM | 0.732 µM | 13.1 µM
9 | C[C@@H](c1ccccc1)N1CC[C@H](N(C)c2ccc(S(=O)(=O)Nc3nccs3)cc2Cl)C1 [Example 42, 3-chloro-4-(methyl((S)-1-((S)-1-phenylethyl)pyrrolidin-3-yl)amino)-N-(thiazol-2-yl)benzenesulfonamide] | 4.38 µM | 0.155 µM | 9.11 µM
10 | C[C@H](c1ccccc1)N1CC[C@H](N(C)c2cc(F)c(S(=O)(=O)Nc3cccc(F)n3)cc2Cl)C1 [Example 45, 5-chloro-2-fluoro-N-(6-fluoropyridin-2-yl)-4-(methyl((S)-1-((R)-1-phenylethyl)pyrrolidin-3-yl)amino)benzenesulfonamide 2,2,2-trifluoroacetate] | 11.2 µM | 1.98 µM | > 30 µM
11 | COc1ccc(CN2CCC(Oc3ccc(S(=O)(=O)Nc4nccs4)cc3Cl)CC2)cc1 [Example 48, 3-chloro-4-((1-(4-methoxybenzyl)piperidin-4-yl)oxy)-N-(thiazol-2-yl)benzenesulfonamide] | 10.5 µM | 3.67 µM | 7.82 µM
12 | O=S(=O)(Nc1nccs1)c1ccc(OC2CCN(C3CCc4ccccc43)CC2)c(Cl)c1 (stereo not drawn) [Example 49, 3-chloro-4-((1-(2,3-dihydro-1H-inden-1-yl)piperidin-4-yl)oxy)-N-(thiazol-2-yl)benzenesulfonamide 2,2,2-trifluoroacetate] | 5.59 µM | 0.491 µM | 5.4 µM
13 | O=S(=O)(Nc1nccs1)c1ccc(NC2CN(Cc3ccccc3)C2)c(Cl)c1 [Example 50, 4-((1-benzylazetidin-3-yl)amino)-3-chloro-N-(thiazol-2-yl)benzenesulfonamide 2,2,2-trifluoroacetate] | 4.15 µM | 1.08 µM | 5.71 µM
14 | O=S(=O)(Nc1nccs1)c1ccc(OC2CCN(Cc3ccc4ccccc4c3)CC2)c(Cl)c1 [Example 51, 3-chloro-4-((1-(naphthalen-2-ylmethyl)piperidin-4-yl)oxy)-N-(thiazol-2-yl)benzenesulfonamide 2,2,2-trifluoroacetate] | 17.6 µM | 6.58 µM | 3.48 µM
15 | CC(c1ccccc1)N1CCC(Oc2cc(F)c(S(=O)(=O)Nc3nccs3)cc2Cl)CC1 (stereo not drawn) [Example 54, 5-chloro-2-fluoro-4-((1-(1-phenylethyl)piperidin-4-yl)oxy)-N-(thiazol-2-yl)benzenesulfonamide] | 9.93 µM | 0.156 µM | 16.7 µM
16 | C[C@H](c1ccccc1)N1CCC(Oc2cc(F)c(S(=O)(=O)Nc3nccs3)cc2Cl)CC1 [Example 56, (R)-5-chloro-2-fluoro-4-((1-(1-phenylethyl)piperidin-4-yl)oxy)-N-(thiazol-2-yl)benzenesulfonamide 2,2,2-trifluoroacetate] | 12.5 µM | 0.392 µM | 10.1 µM
17 | CC(C)(c1ccccc1)N1CCC(Oc2cc(F)c(S(=O)(=O)Nc3nccs3)cc2Cl)CC1 [Example 60, 5-chloro-2-fluoro-4-((1-(2-phenylpropan-2-yl)piperidin-4-yl)oxy)-N-(thiazol-2-yl)benzenesulfonamide 2,2,2-trifluoroacetate] | 13.3 µM | 0.452 µM | 15.9 µM
18 | O=S(=O)(Nc1nccs1)c1ccc(OC2CCN(Cc3ccncc3)CC2)c(Cl)c1 [Example 63, 3-chloro-4-((1-(pyridin-4-ylmethyl)piperidin-4-yl)oxy)-N-(thiazol-2-yl)benzenesulfonamide] | > 30 µM | 27.7 µM | > 30 µM
19 | O=S(=O)(Nc1nccs1)c1ccc(OC2CCN(Cc3cccnc3)CC2)c(Cl)c1 [Example 64, 3-chloro-4-((1-(pyridin-3-ylmethyl)piperidin-4-yl)oxy)-N-(thiazol-2-yl)benzenesulfonamide] | > 30 µM | 5.63 µM | > 30 µM
20 | O=S(=O)(Nc1nccs1)c1ccc(N[C@@H]2CCN(Cc3cccc(Cl)c3)C2)c(Cl)c1 [Example 69, (R)-3-chloro-4-((1-(3-chlorobenzyl)pyrrolidin-3-yl)amino)-N-(thiazol-2-yl)benzenesulfonamide] | 1.76 µM | 0.697 µM | 6.15 µM
21 | Cc1cccc(CN2CC[C@@H](Nc3ccc(S(=O)(=O)Nc4nccs4)cc3Cl)C2)c1 [Example 70, (R)-3-chloro-4-((1-(3-methylbenzyl)pyrrolidin-3-yl)amino)-N-(thiazol-2-yl)benzenesulfonamide] | 3.18 µM | 0.664 µM | 4.2 µM
22 | O=S(=O)(Nc1nccs1)c1ccc(OC2CN(Cc3ccccc3)C2)c(Cl)c1 [Example 76, 4-((1-benzylazetidin-3-yl)oxy)-3-chloro-N-(thiazol-2-yl)benzenesulfonamide] | 11.4 µM | 4.7 µM | 16.8 µM
23 | O=S(=O)(Nc1cccc(F)n1)c1cc(Cl)c(OC2CCN(Cc3ccccc3)CC2)cc1F [Example 78, 4-((1-benzylpiperidin-4-yl)oxy)-5-chloro-2-fluoro-N-(6-fluoropyridin-2-yl)benzenesulfonamide 2,2,2-trifluoroacetate] | 8.17 µM | 6.6 µM | 2.86 µM
24 | O=S(=O)(Nc1nccs1)c1ccc(OC2CCN(Cc3cccc(F)c3)CC2)c(Cl)c1 [Example 81, 3-chloro-4-(1-(3-fluorobenzyl)piperidin-4-yloxy)-N-(thiazol-2-yl)benzenesulfonamide] | 7.48 µM | 0.572 µM | 7.22 µM
25 | COc1cccc(CN2CCC(Oc3ccc(S(=O)(=O)Nc4nccs4)cc3Cl)CC2)c1 [Example 84, 3-chloro-4-(1-(3-methoxybenzyl)piperidin-4-yloxy)-N-(thiazol-2-yl)benzenesulfonamide] | 6 µM | 0.525 µM | 3.54 µM
26 | O=S(=O)(Nc1nccs1)c1ccc(OC2CCN(Cc3cccc(Cl)c3)CC2)c(Cl)c1 [Example 85, 3-chloro-4-(1-(3-chlorobenzyl)piperidin-4-yloxy)-N-(thiazol-2-yl)benzenesulfonamide] | 8.7 µM | 0.353 µM | 5.71 µM
27 | Cc1cccc(CN2CC[C@H](Nc3cc(F)c(S(=O)(=O)Nc4nccs4)cc3Cl)C2)c1 [Example 86, (S)-5-chloro-2-fluoro-4-(1-(3-methylbenzyl)pyrrolidin-3-ylamino)-N-(thiazol-2-yl)benzenesulfonamide] | 5.37 µM | 0.588 µM | 12.5 µM
28 | O=S(=O)(Nc1nccs1)c1ccc(OC2CCN(Cc3ccccc3F)CC2)c(Cl)c1 [Example 90, 3-chloro-4-(1-(2-fluorobenzyl)piperidin-4-yloxy)-N-(thiazol-2-yl)benzenesulfonamide] | 12.4 µM | 0.464 µM | 8.16 µM
29 | Cc1ccccc1CN1CCC(Oc2ccc(S(=O)(=O)Nc3nccs3)cc2Cl)CC1 [Example 91, 3-chloro-4-(1-(2-methylbenzyl)piperidin-4-yloxy)-N-(thiazol-2-yl)benzenesulfonamide] | 7.2 µM | 1.2 µM | 6.94 µM
